Measured values reported in patent US8969565B2, “Imidazo[1,2-b]pyridazine-based compounds, compositions comprising them, and methods of their use” (Lexicon Pharmaceuticals, Inc., priority 2012, dated 2015).
Counter-ions that a name gives are not always drawn.

How the values were obtained:
AAK1 [1] = target: T1, AAK1 (Homo sapiens, UniProt Q2M2I8); assay: HEK281 cell-based assay (phospho-mu2 Western blot in transfected HEK293F cells); settings: 3 hours incubation, read-out: CBA IC50
T1 construct: HA; expressed in transfected cells; host or cells: HEK293F
T1 sequence (Q2M2I8 1-863 isoform Q2M2I8-2): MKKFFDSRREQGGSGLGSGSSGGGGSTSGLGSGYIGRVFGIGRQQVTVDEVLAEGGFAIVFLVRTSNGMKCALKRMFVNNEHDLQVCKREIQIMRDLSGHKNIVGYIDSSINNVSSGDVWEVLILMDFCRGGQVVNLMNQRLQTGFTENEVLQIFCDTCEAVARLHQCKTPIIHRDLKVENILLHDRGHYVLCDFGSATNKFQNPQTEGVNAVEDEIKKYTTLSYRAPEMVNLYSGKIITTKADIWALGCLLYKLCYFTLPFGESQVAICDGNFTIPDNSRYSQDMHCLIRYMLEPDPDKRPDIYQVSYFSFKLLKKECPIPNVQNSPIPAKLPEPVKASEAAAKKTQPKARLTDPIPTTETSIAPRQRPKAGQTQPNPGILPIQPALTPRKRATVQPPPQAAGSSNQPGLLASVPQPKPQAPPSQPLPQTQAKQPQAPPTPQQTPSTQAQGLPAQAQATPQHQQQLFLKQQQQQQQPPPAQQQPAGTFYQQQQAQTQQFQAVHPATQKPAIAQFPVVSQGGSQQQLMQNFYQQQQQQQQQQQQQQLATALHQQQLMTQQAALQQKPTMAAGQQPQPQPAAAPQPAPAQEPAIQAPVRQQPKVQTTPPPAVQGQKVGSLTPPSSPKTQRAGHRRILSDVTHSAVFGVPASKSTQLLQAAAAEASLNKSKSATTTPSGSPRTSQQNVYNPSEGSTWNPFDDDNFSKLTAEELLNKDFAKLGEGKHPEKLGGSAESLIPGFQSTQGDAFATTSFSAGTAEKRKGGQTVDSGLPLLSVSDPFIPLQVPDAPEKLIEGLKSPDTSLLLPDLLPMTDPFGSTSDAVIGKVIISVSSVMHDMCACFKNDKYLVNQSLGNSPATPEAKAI
In short: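 After 3 hours at 37° C. with compound (five 3-fold-spaced concentrations, DMEM+0.5% FBS), transiently transfected HEK293F cells expressing full-length human AAK1 and Flag-tagged mu2 were lysed. mu2 phosphorylation was read by anti-phospho-mu2 immunoblot, normalized against total mu2 by anti-Flag blot.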

AAK1 [2] = target: T1, AAK1; assay: P81 filter plate assay; assay type: biochemical; settings: full-length human AAK1, Mu2 substrate

SMILES	melting point	IC50 (AAK1 [1]) [nM]	IC50 (AAK1 [2]) [nM]
FC(F)(F)CCCNc1ccc2ncc(-c3cccc4c3OCC4)n2n1 (as salt: hydrochloride) [Example 5.6.106, [3-(2,3-Dihydro-benzofuran-7-yl)-imidazo[1,2-b]pyridazin-6-yl]-(4,4,4-trifluoro-butyl)-amine]	299 to 300 °C	–	–
CC(C)OC(=O)N1CCN(c2ccc3ncc(-c4ccncc4)n3n2)CC1 (as salt: hydrochloride) [Example 5.6.108, 4-(3-Pyridin-4-yl-imidazo[1,2-b]pyridazin-6-yl)-piperazine-1-carboxylic acid isopropyl ester]	195 to 196 °C (dec.)	–	–
COc1cnccc1-c1cnc2ccc(N3CCN(C(=O)CC(C)(C)C)CC3)nn12 (as salt: hydrochloride) [Example 5.6.114, 1-(4-(3-(3-Methoxypyridin-4-yl)imidazo[1,2-b]pyridazin-6-yl)piperazin-1-yl)-3,3-dimethylbutan-1-one]	211 to 212 °C (dec.)	–	–
COc1ccccc1-c1cnc2ccc(N3CCN(C(=O)OC(C)C)CC3)nn12 (as salt: hydrochloride) [Example 5.6.115, 4-[3-(2-Methoxy-phenyl)-imidazo[1,2-b]pyridazin-6-yl]-piperazine-1-carboxylic acid isopropyl ester]	243 to 244 °C (dec.)	–	–
CC(C)(C)C(=O)N1CCN(c2ccc3ncc(-c4ccccc4)n3n2)CC1 (as salt: hydrochloride) [Example 5.6.125, 2,2-Dimethyl-1-[4-(3-phenyl-imidazo[1,2-b]pyridazin-6-yl)-piperazin-1-yl]-propan-1-one]	277 to 278 °C (dec.)	–	–
CC(C)OC(=O)N1CCN(c2ccc3ncc(-c4ccccc4OC(C)C)n3n2)CC1 (as salt: hydrochloride) [Example 5.6.145, 4-[3-(2-Isopropoxy-phenyl)-imidazo[1,2-b]pyridazin-6-yl]-piperazine-1-carboxylic acid isopropyl ester]	216 to 217 °C (dec.)	–	–
COc1ncccc1-c1cnc2ccc(N3CCN(C(=O)OC(C)C)CC3)nn12 (as salt: hydrochloride) [Example 5.6.151, 4-[3-(2-Methoxy-pyridin-3-yl)-imidazo[1,2-b]pyridazin-6-yl]-piperazine-1-carboxylic acid isopropyl ester]	179 to 181 °C (dec.)	–	–
CC(C)(C)NC(=O)N1CCN(c2ccc3ncc(-c4ccccc4)n3n2)CC1 (as salt: hydrochloride) [N-(tert-Butyl)-4-(3-phenylimidazo[1,2-b]pyridazin-6-yl)piperazine-1-carboxamide]	210 to 211 °C (dec.)	–	–
CC(C)NC(=O)N1CCN(c2ccc3ncc(-c4ccccc4)n3n2)CC1 (as salt: hydrochloride) [N-Isopropyl-4-(3-phenylimidazo[1,2-b]pyridazin-6-yl)piperazine-1-carboxamide]	217 to 218 °C (dec.)	–	–
CC(C)SC(=O)N1CCN(c2ccc3ncc(-c4ccccc4)n3n2)CC1 (as salt: hydrochloride) [S-Isopropyl 4-(3-phenylimidazo[1,2-b]pyridazin-6-yl)piperazine-1-carbothioate]	276 to 277 °C (dec.)	–	–
O=C(N1CCCC1)N1CCN(c2ccc3ncc(-c4ccccn4)n3n2)CC1 (as salt: hydrochloride) [[4-(3-Pyridin-2-yl-imidazo[1,2-b]pyridazin-6-yl)-piperazin-1-yl]-pyrrolidin-1-yl-methanone]	202 to 203 °C	–	–
CC(C)OC(=O)N1CCN(c2ccc3ncc(Br)n3n2)C(C)C1 (racemic) [Example 5.6.146, Isopropyl 4-(3-bromoimidazo[1,2-b]pyridazin-6-yl)-3-methylpiperazine-1-carboxylate]	52 to 54 °C	–	–
CC(C)OC(=O)N1CCN(c2ccc3ncc(Br)n3n2)CC1C (racemic) [Example 5.6.147, Isopropyl 4-(3-bromoimidazo[1,2-b]pyridazin-6-yl)-2-methylpiperazine-1-carboxylate]	144 to 145 °C	–	–
COc1ccccc1-c1cnc2ccc(N3C[C@H]4C[C@@H]3CN4C(=O)OC(C)C)nn12 (stereo in doubt) (as salt: hydrochloride) [Example 5.6.154, Isopropyl 5-(3-(2-methoxyphenyl)imidazo[1,2-b]pyridazin-6-yl)-2,5-diazabicyclo[2.2.1]heptane-2-carboxylate]	173 to 174 °C	–	–
CC(C)(C)NC(=O)N1CCN(c2ccc3ncc(Br)n3n2)CC1 [4-(3-Bromoimidazo[1,2-b]pyridazin-6-yl)-N-(tert-butyl)piperazine-1-carboxamide]	199 to 200 °C	≤ 100	≤ 10
CC(C)(C)OC(=O)N1CCN(c2ccc3ncc(-c4ccccc4)n3n2)CC1 [4-(3-Phenyl-imidazo[1,2-b]pyridazin-6-yl)-piperazine-1-carboxylic acid tert-butyl ester]	101 to 103 °C (dec.)	≤ 100	≤ 10
CCCCNc1ccc2ncc(-c3ccc(-c4nnn[nH]4)cc3)n2n1 [Butyl-{3-[4-(1H-tetrazol-5-yl)-phenyl]-imidazo[1,2-b]pyridazin-6-yl}-mine]	270 to 271 °C	≤ 1000	–
CC(=O)c1ccc(-c2cnc3ccc(N(C)CCCNC(=O)OC(C)(C)C)nn23)s1 [Example 5.6.27, (3-{[3-(5-Acetyl-thiophen-2-yl)-imidazo[1,2-b]pyridazin-6-yl]-methyl-amino}-propyl)-carbamic acid tert-butyl ester]	148 to 149 °C	–	–
CCCCNc1ccc2ncc(-c3ccc(-c4noc(=O)[nH]4)cc3)n2n1 [Example 5.6.49, 3-[4-(6-Butylamino-imidazo[1,2-b]pyridazin-3-yl)-phenyl]-4H-[1,2,4]oxadiazol-5-one]	253 to 254 °C (dec.)	–	–
CN(CCNc1ccc2ncc(Br)n2n1)C(=O)OC(C)(C)C [Example 5.6.56, [2-(3-Bromo-imidazo[1,2-b]pyridazin-6-ylamino)-ethyl]-methyl-carbamic acid tert-butyl ester]	128 to 129 °C	–	–
CC(C)N(CCNc1ccc2ncc(Br)n2n1)C(=O)OC(C)(C)C [Example 5.6.72, [2-(3-Bromo-imidazo[1,2-b]pyridazin-6-ylamino)-ethyl]-isopropyl-carbamic acid tert-butyl ester]	154 to 155 °C	–	–
CC(C)OC(=O)N1CCN(c2ccc3ncc(Br)n3n2)CC1 [Example 5.6.102, 4-(3-Bromo-imidazo[1,2-b]pyridazin-6-yl)-piperazine-1-carboxylic acid isopropyl ester]	123 to 124 °C	–	–
CC(C)(C)OC(=O)N1CCC[C@H]1CNc1ccc2ncc(I)n2n1 [Example 5.6.107, (S)-2-[(3-Iodo-imidazo[1,2-b]pyridazin-6-ylamino)-methyl]-pyrrolidine-1-carboxylic acid tert-butyl ester]	138 to 139 °C	–	–
COc1cnccc1-c1cnc2ccc(N3CCCN(C(=O)OC(C)(C)C)CC3)nn12 [Example 5.6.121, 4-[3-(3-Methoxy-pyridin-4-yl)-imidazo[1,2-b]pyridazin-6-yl]-[1,4]diazepane-1-carboxylic acid tert-butyl ester]	115 to 116 °C	–	–
CCCCN(C)c1ccc2ncc(-c3ccc(CN)cc3)n2n1 [[3-(4-Aminomethyl-phenyl)-imidazo[1,2-b]pyridazin-6-yl]-butyl-methyl-amine]	99 to 101 °C	≤ 1000	–
